Reference: the METLIN SMRT retention time set (Domingo-Almenara et al. 2019)

Assay: gradient 5% acetonitrile 3 min, to 50% in 2 min, to 85% in 15 min, held 3 min, 100 µL/min
Conditions: column: Zorbax Extend-C18 2.1 x 50 mm; eluents: water / acetonitrile, 0.1% formic acid
In short: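 Retention time was recorded from adduct peaks, which were picked computationally and each inspected manually. Pure standards ran in mixtures of ~100 molecules on HPLC coupled to a quadrupole time-of-flight mass spectrometer, in positive and negative ionization mode, through a Zorbax Extend-C18 column (2.1 × 50 mm, 1.8 μm) at 100 μL/min. Eluents were water and acetonitrile, each with 0.1% formic acid.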

Row | Compound | RP-LC retention time
1 | CS(=O)(=O)Nc1ccc([N+](=O)[O-])cc1OC1CCCCC1 | 982 s
2 | Cc1ccccc1-c1noc(CCn2nc(-c3ccc4c(c3)OCO4)ccc2=O)n1 | 945 s
3 | O=S(=O)(Nc1ccc(-c2ccc(N3CCCC3)nn2)cc1)c1ccc(Cl)s1 | 594 s
4 | Cn1c(=O)n(C)c2cc(S(=O)(=O)C3CCCCC3)c(NC(=O)c3ccccc3)cc21 | 982 s
5 | CCCC(=O)N1CCCN(C2=NS(=O)(=O)C(c3ccc(C)cc3)=C2C)CC1 | 797 s
6 | COc1ccc(-c2cn3c(CC(=O)N4CCCCC4)csc3n2)cc1OC | 666 s
7 | O=C(NCCCN1CCCC1)c1c2c(nc3ccccc13)C(=O)N(C1CCCCC1)C2 | 595 s
8 | O=C(NCC1CCCCC1)c1ccc(CN2C(=O)C3CCCN3C(=O)c3ccccc32)cc1 (stereo not drawn) | 824 s
9 | CCOCCCNC(=O)c1cc2n(n1)CCCN(Cc1ccc(Cl)cc1)C2=O | 797 s
10 | O=[N+]([O-])c1cccc(-c2ccc(SCc3ccccn3)nn2)c1 | 637 s
11 | CC(NC(=O)c1cc(F)cc(F)c1)C(=O)Nc1nc2ccccc2[nH]1 (stereo not drawn) | 655 s
12 | CCOC(=O)N1CCC(Nc2c(C(=O)OC)c(=O)[nH]c3ccc(F)cc23)CC1 | 705 s
13 | CC(C)c1ccc(NC(=O)C2CCN(S(=O)(=O)c3ccc4[nH]c(=O)sc4c3)CC2)cc1 | 913 s
14 | O=c1c2nc(-c3ccc(Cl)cc3)cn2ccn1-c1ccc(F)c(F)c1 | 891 s
15 | CCc1onc(C)c1C1CCCN1C(=O)NCc1ccc(F)cc1 (stereo not drawn) | 766 s
16 | Cn1nc(C(=O)Nc2ccc3c(c2)C(=O)N2CCC[C@H]2C(=O)N3)c2ccccc21 | 714 s
17 | O=C(Cn1c(=O)oc2ccccc21)N1[C@H]2CC[C@@H]1c1cnc(-c3ccc(F)cc3)nc1C2 | 912 s
18 | COc1ccc(-n2c(CN3CCN(C(=O)NCc4ccco4)CC3)nc3cccnc32)cc1 | 617 s
19 | Cc1nc([C@@H]2CN(S(=O)(=O)C(C)C)C[C@H]2C(N)=O)n[nH]1 | 566 s
20 | CCC1Oc2ccc(S(=O)(=O)N3CCC(C(=O)NCc4ccccc4)CC3)cc2NC1=O (stereo not drawn) | 824 s
21 | CCOc1ccc(NC(=O)Cn2cnc3nc(N4CCC(C(=O)NC5CC5)CC4)sc3c2=O)cc1 | 675 s
22 | Cc1cccc(N2CCN(C(=O)C3CCN(c4ncnc5c4oc4ccccc45)CC3)CC2)c1C | 1030 s

Row | Compound | RP-LC retention time
23 | O=C(NCc1ccc(F)cc1)c1ccc2c(c1)Sc1ncccc1C(=O)N2C1CC1 | 791 s
24 | Cc1ccc(-n2nc3c(=O)n(CCCC(=O)NCCCN4CCCC4=O)nc(C)c3c2C)cc1 | 683 s
25 | COc1ccc(-c2nc3ccc(Br)cn3c2Nc2ccc(C)cc2)cc1 | 847 s
26 | Clc1ccccc1C1Cn2cnc(-c3nc(-c4cccnc4)no3)c2CO1 (stereo not drawn) | 825 s
27 | CC(C)c1ccc(S(=O)(=O)N2C[C@@H](F)C[C@H]2C(=O)N2CCCCC2)cc1 | 930 s
28 | Cc1ccc(NC(=O)Cc2cccc3ccccc23)cc1N1CCCC1=O | 753 s
29 | CCOc1ccccc1-c1nn2c(CSc3ccccc3)nnc2s1 | 1120 s
30 | CC1CCCN(CC2CCN(C(=O)Nc3ccc(F)cc3)CC2)C1 (stereo not drawn) | 608 s
31 | CCc1nc(-c2csc(S(=O)(=O)N3CCCC(C(=O)Nc4cccc(OC)c4)C3)c2)no1 (stereo not drawn) | 1000 s
32 | CCn1cc(C(=O)NCCC2=CCCCC2)c2nn(-c3ccccc3)c(=O)c-2c1 | 1020 s
33 | Cc1ccc(-c2noc(-c3nc(-c4ccncc4)no3)n2)cc1 | 1090 s
34 | COc1ccc(NC(=O)c2sc3[nH]c(=O)c(C(=O)O)cc3c2N)c(OC)c1 | 681 s
35 | CCOc1ccc(C(=O)N2CCN(c3ccc(-c4nc(C)cs4)cn3)CC2)cc1 | 884 s
36 | CCSc1nnc(-c2nn(C)c3c2CN(C(=O)c2c(F)cccc2F)CC3)n1C | 746 s
37 | COc1cccc(CCC(=O)Nc2ccc3c(c2)Sc2ncccc2C(=O)N3C)c1 | 1210 s
38 | O=C(OCc1cc(-c2ccccc2)on1)c1ccc[nH]c1=O | 656 s
39 | O=C(Cn1nc(N2CCOCC2)c2ccccc2c1=O)Nc1ccc(Br)cc1F | 894 s
40 | Cc1ccc(Cn2nc3n(c2=O)CCCC3)cc1 | 702 s
41 | COc1ccc(NC(=O)[C@@H]2c3ccccc3C(=O)N3CCCC[C@@H]23)cc1OC | 727 s
42 | COCc1c(C(=O)O)nnn1-c1ccc(C(F)(F)F)cc1 | 775 s
43 | Cc1cc(=O)n(CC(=O)Nc2ccccc2)c(N)n1 | 580 s
44 | O=C(NCC1CCCO1)c1nnn(-c2ccccc2Cl)c1-c1ccncc1 (stereo not drawn) | 693 s

Row | Compound | RP-LC retention time
45 | COc1cc([C@@H]2c3cc4c(cc3[C@H](O)[C@@H](CO)[C@@H]2C(=O)N2CCc3ccccc32)OCO4)cc(OC)c1OC | 771 s
46 | CC1CCCN(C(=O)CN(C)S(=O)(=O)c2ccc3c(c2)CCCC(=O)N3)C1 (stereo not drawn) | 718 s
47 | Cc1cccc2nnc(N3CCN(C(=O)c4ccc(Br)cc4)CC3)n12 | 683 s
48 | CN1C(=O)c2cc(S(=O)(=O)Nc3ccc(F)cc3F)ccc2Oc2cccnc21 | 887 s
49 | Cc1nc(-c2ccc(-c3noc(C(C)NC(=O)c4ccco4)n3)cc2)cs1 (stereo not drawn) | 863 s
50 | CO[C@H]1C(=O)N(C(C)C)[C@H]1C1CCN(C(=O)CN2C(=O)CCC2=O)CC1 | 607 s
51 | Cc1cnn(CCC(=O)N2CC(n3cc(COc4ccc(F)cc4)nn3)C2)c1 | 712 s
52 | Cc1ccc(NC(=O)CCc2nc(CSc3nnc(-c4ccccc4)o3)no2)cc1Cl | 1030 s
53 | Nc1nc2ccc([N+](=O)[O-])cc2[nH]1 | 610 s
54 | COc1ccc(-c2ncc3c(n2)CCN(S(=O)(=O)Cc2ccccc2)C3)cc1 | 976 s
55 | Cc1cccc(NC(=O)Cn2cc(S(=O)(=O)c3ccc(F)cc3)c3ccccc32)n1 | 832 s
56 | CCOc1ccccc1-n1ccn(Cc2nc(-c3cccc(F)c3)no2)c(=O)c1=O | 876 s
57 | Oc1ccc(C2NCCc3c2[nH]c2ccc(Cl)cc32)cc1O (stereo not drawn) | 620 s
58 | CC(C)N1C(=O)C(C)(C(=O)NC2CCCCC2)Oc2cccnc21 (stereo not drawn) | 1010 s
59 | Cc1ccc(C)c(CN2C(=O)NC3(CCN(C(=O)c4ccsc4)CC3)C2=O)c1 | 827 s
60 | CC1(C(=O)NCc2ccccc2)CN(S(C)(=O)=O)CC(=O)N1c1cccc(F)c1 (stereo not drawn) | 710 s
61 | Cc1nn(CC(=O)NCCc2c[nH]c3ccc(Cl)cc23)c(=O)c2noc(C)c12 | 766 s
62 | Cc1nc(-c2noc(-c3ccncc3)n2)cn1CC(=O)N1CCc2ccccc21 | 678 s
63 | CCCC(C)NC(=O)c1ccc(Cl)c(Cl)c1 (stereo not drawn) | 1130 s
64 | Cc1ccc(NC(=O)N2CCN(c3cnn4c(C)nnc4c3)CC2)cc1Cl | 674 s
65 | Cc1nn(C(=O)C(C)(C)C)c(C)c1S(=O)(=O)N1CCOCC1 | 1090 s
66 | O=C(CN1CCN(Cc2ccc(F)cc2)C1=O)NCc1cccc(Cl)c1 | 846 s

Row | Compound | RP-LC retention time
67 | CCCc1ccc(S(=O)(=O)N2CCC(n3cnc4c(C)cccc4c3=O)CC2)cc1 | 640 s
68 | Cc1ccn2c(Nc3ccc4c(c3)OCCO4)c(-c3ccc(O)cc3)nc2c1 | 719 s
69 | Cn1nc(C(=O)Nc2ccccc2)c2c1CCN(C(=O)CCC(=O)N1CCOCC1)C2 | 668 s
70 | O=C(Cn1cnc2cc3c(cc21)OCCO3)Nc1cccc(C(F)(F)F)c1 | 697 s
71 | CC(O)c1nc2c(c(=O)n(C)c(=O)n2C)n1C (stereo not drawn) | 622 s
72 | COc1ccc(-c2nn3c(COc4ccc(Br)cc4)nnc3s2)cc1OC | 980 s
73 | CCOCCCNC(=O)C1CCN(c2nc3cccnc3s2)CC1 | 654 s
74 | Cc1nn(C(C)C)c(C)c1S(=O)(=O)N1CCN(C(=O)CCc2c[nH]c3ccccc23)CC1 | 829 s
75 | Cc1nn(-c2ccc(Cl)cc2)c(C)c1S(=O)(=O)Nc1ccc(S(N)(=O)=O)cc1 | 812 s
76 | Cc1ccc(N2C(=O)CN(S(=O)(=O)c3ccccc3)CC2(C)C(=O)NC2CCCC2)c(C)c1 (stereo not drawn) | 983 s
77 | Fc1ccc(C2Cn3nnc(-c4nc(-c5cccnc5)no4)c3CO2)cc1 (stereo not drawn) | 896 s
78 | COc1ccc(OC)c(NC(=O)C2(c3cccs3)CCOCC2)c1 | 917 s
79 | CCN1c2ccccc2C(=O)NC12CCN(C(=O)c1cc(OC)c(OC)c(OC)c1)CC2 | 714 s
80 | COc1cn(CC(=O)Nc2cc(C)on2)c(CN2CCCCC2)cc1=O | 566 s
81 | CCCNC(=O)CCc1nc2ccccc2n(CC(=O)Nc2ccc(OC)cc2)c1=O | 746 s
82 | CC(C)NC(=O)c1nnc(-c2ccc(S(=O)(=O)N3CCCC3)cc2)o1 | 779 s
83 | Cc1cnn(CC(=O)N2CCC3(CC2)CC(C)(O)CCO3)c1 (stereo not drawn) | 603 s
84 | CCn1cc(-c2nc(CC(=O)Nc3ccc(C#N)cc3)cs2)c2cccnc21 | 879 s
85 | O=C(c1ccsc1)N(CCc1cccs1)C1CC1 | 853 s
86 | O=C(O)c1nc(N2CCCC2)c2oc3ccccc3c2n1 | 617 s
87 | Cc1cccc(-c2noc(-c3nn(-c4ccc(Cl)cc4)ccc3=O)n2)c1 | 1000 s
88 | COc1cc(NC(=O)c2cn3c(n2)CN(CC(C)C)CC3)cc(OC)c1 | 818 s
